CC50, Emax and MI% data for 6 compounds are collected here from PMC9743095 (Journal of Medicinal Chemistry, 2022).

Common to all, as to assay: cells
Common to all, as to type: cell-based

The test system of one assay is MOLT-4. As to conditions: Homo sapiens, MOLT-4, 72 h; for CC50: read-out: LC50; for Emax: read-out: MI%. On the procedure:
(§1) The assay was contracted and carried out by WuXi AppTec (Shanghai) Co., Ltd. The tumor cell lines CCRF-CEM, HL-60, KG-1, MOLT-4, K562, MV4-11, THP-1, HEL92.1.7, NCI-H929, RPMI-8226, Jurkat, Z138, RL, HS445, HepG2, MCF-7, Bx-PC-3, HT29, MIA PaCa-2, and SW620 were seeded at cell densities of […] 10^3 cells/well in a 96-well plate the day before drug incubation. Then, the plates were incubated for 72 h with the different concentrations of compound to be tested. After the incubation period, 50 μL of MTS was added and the tumor cells were incubated for 4 h at 37 °C. The data were read and collected by a Spectra Max 340 absorbance microplate reader. The compounds were tested in duplicate with nine serial concentrations (3.16-fold titrations with 198 μM as the highest concentration), and the data were analyzed by XLfit software.

The test system of another assay is KG-1. The conditions noted are these: Homo sapiens, KG-1, 72 h, read-out: LC50. Here is the method:
as §1

The subject of another assay is HepG2. The conditions noted are these: Homo sapiens, HepG2, 72 h; for CC50: read-out: LC50; for Emax: read-out: MI%. On the procedure: as §1
For a further assay, the system named is HL-60. As to conditions: Homo sapiens, HL-60, 72 h; for CC50: read-out: LC50; for Emax: read-out: MI%. On the procedure: as §1
Another assay concerns MCF-7. As to conditions: Homo sapiens, MCF7, 72 h; for CC50: read-out: LC50; for Emax: read-out: MI%. Here is the method:
as §1

For the next assay, the system named is K562. As to conditions: Homo sapiens, K562, 72 h; for CC50: read-out: LC50; for Emax: read-out: MI%. Here is the method:
as §1

Another assay relates to CCRF-CEM. As to conditions: Homo sapiens, 72 h; for CC50: read-out: LC50; for Emax: read-out: MI%. On the procedure:
as §1

The subject of a further assay is MV4-11. As to conditions: for CC50: Homo sapiens, MV4-11, 72 h, read-out: LC50; for MI%: MV4-11, maximum inhibitory effect over concentration range. On the procedure:
as §1

The test system of a further assay is MIA PaCa-2. As to conditions: for CC50: Homo sapiens, MIA PaCa-2, 72 h, read-out: LC50; for MI%: MIA PaCa-2, maximum inhibitory effect over concentration range. On the procedure: as §1
The test system of the next assay is HS445. The conditions noted are these: for MI%: HS445, maximum inhibitory effect over concentration range; for CC50: Homo sapiens, Hs 445, 72 h, read-out: LC50. On the procedure:
as §1

The test system of the next assay is BxPC-3. As to conditions: for MI%: BxPC-3, maximum inhibitory effect over concentration range; for CC50: Homo sapiens, BXPC-3, 72 h, read-out: LC50. Here is the method: as §1
For another assay, the system named is NCI-H929. As to conditions: for CC50: Homo sapiens, NCI-H929, 72 h, read-out: LC50; for MI%: NCI-H929, maximum inhibitory effect over concentration range. Here is the method: as §1
In the next assay the test system is SW620. The conditions noted are these: for CC50: Homo sapiens, SW-620, 72 h, read-out: LC50; for MI%: SW620, maximum inhibitory effect over concentration range. On the procedure:
as §1

For a further assay, the system named is HEL92.1.7. The conditions noted are these: for MI%: HEL92.1.7, maximum inhibitory effect over concentration range; for CC50: Homo sapiens, HEL 92.1.7, 72 h, read-out: LC50. Here is the method: as §1
Another assay relates to THP-1. The conditions noted are these: for CC50: Homo sapiens, THP-1, 72 h, read-out: LC50; for MI%: THP-1, maximum inhibitory effect over concentration range. On the procedure:
as §1

The test system of the next assay is HT29. As to conditions: for MI%: HT29, maximum inhibitory effect over concentration range; for CC50: Homo sapiens, HT-29, 72 h, read-out: lC50. Here is the method:
as §1

The subject of another assay is RL. As to conditions: for CC50: Homo sapiens, 72 h, read-out: LC50; for MI%: maximum inhibitory effect over concentration range. On the procedure: as §1
The subject of a further assay is RPMI-8226. The conditions noted are these: for CC50: Homo sapiens, RPMI-8226, 72 h, read-out: LC50; for MI%: RPMI-8226, maximum inhibitory effect over concentration range. Here is the method:
as §1

In a further assay the test system is Jurkat. As to conditions: Jurkat; for CC50: Homo sapiens, 72 h, read-out: LC50; for MI%: maximum inhibitory effect over concentration range. On the procedure: as §1

Take `C[C@H](NP(=O)(Oc1ccccc1)O[C@@H]1C[C@@H](COP(=O)(N[C@H](C)C(=O)OCc2ccccc2)Oc2ccccc2)O[C@H]1n1cnc2c(N)ncnc21)C(=O)OCc1ccccc1` (some centres unmarked) [Compound 5a]: the CC50 with MOLT-4 turned out to be 62.9 µM; in the assay on KG-1, 112 µM; with HepG2, 85.5 µM; with HL-60 it was 143 µM; in the assay on MCF-7 it was 10.3 µM; in the assay with K562, 26.3 µM. Besides, in the assay with CCRF-CEM, the CC50 turned out to be 64.8 µM. For the same compound, the Emax came out at 75% with MOLT-4; 57% in the assay on HL-60; 97% with MCF-7; 78% with K562; 65% in the assay on CCRF-CEM.

On to `C[C@H](NP(=O)(Oc1cccc2ccccc12)O[C@@H]1C[C@@H](COP(=O)(N[C@H](C)C(=O)OCc2ccccc2)Oc2cccc3ccccc23)O[C@H]1n1cnc2c(N)ncnc21)C(=O)OCc1ccccc1` (some centres unmarked) [Compound 5b], for which the CC50 is 14.8 µM in the assay on MOLT-4; 66.3 µM in the assay with KG-1; 30.2 µM with HepG2; 78.6 µM in the assay with HL-60; 5.05 µM in the assay with MCF-7; 25.4 µM in the assay on K562. Besides, the CC50 with CCRF-CEM came to 27.1 µM. The Emax in the assay with MOLT-4 stood at 100%; in the assay on HepG2, 90%; in the assay on HL-60, 99%; in the assay with MCF-7, 99%; in the assay on K562 it was 87%; with CCRF-CEM it was 99%.

With `C[C@H](NP(=O)(Oc1ccccc1)O[C@@H]1C[C@@H](CO)O[C@H]1n1cnc2c(N)ncnc21)C(=O)OCc1ccccc1` (some centres unmarked) [Compound 6a], the CC50 in the assay with MOLT-4 was determined as 18.6 µM; with KG-1 it was 79.4 µM; in the assay with HepG2, 83.1 µM; in the assay on HL-60 it was 31.1 µM; in the assay with MCF-7, 5.06 µM; in the assay with K562 it was 26.9 µM. The CC50 in the assay on CCRF-CEM is 17.6 µM. In addition, the Emax with MOLT-4 was 100%; with HepG2, 55%; with HL-60 it was 80%; in the assay with MCF-7, 94%; in the assay with K562, 89%; with CCRF-CEM, 99%.

`C[C@H](NP(=O)(N[C@@H](C)C(=O)OCc1ccccc1)OC[C@@H]1C[C@@H](O)[C@H](n2cnc3c(N)ncnc32)O1)C(=O)OCc1ccccc1` [Compound 9]: the CC50 in the assay with MOLT-4 amounted to 3.52 µM; in the assay on KG-1, 34.1 µM; with HepG2, 157 µM; in the assay on HL-60, 16.5 µM; with MCF-7, 13 µM; in the assay with K562, 24.3 µM. Further, the CC50 in the assay with CCRF-CEM was 7.03 µM. Also, the Emax with MOLT-4 stood at 100%; with HepG2, 55%; in the assay with HL-60, 100%; in the assay with MCF-7, 97%; in the assay with K562, 97%; with CCRF-CEM it was 100%.

As for `C[C@H](N[P@@](=O)(OC[C@@H]1C[C@@H](O)[C@H](n2cnc3c(N)ncnc32)O1)Oc1ccccc1)C(=O)OCc1ccccc1` [Rp-7a], the CC50 is 0.98 µM in the assay with MV4-11; 0.57 µM in the assay on MOLT-4; 14 µM with MIA PaCa-2; 42 µM in the assay with HS445; 74 µM in the assay on BxPC-3; 19 µM with NCI-H929. The CC50 is 14 µM in the assay with KG-1; 29 µM in the assay with SW620; 32 µM with HepG2; 11 µM with HEL92.1.7; 35 µM with THP-1; 16 µM in the assay on HT29. Further, the CC50 was found to be 8.7 µM with HL-60; 4 µM in the assay on RL; 25 µM in the assay with RPMI-8226; 2.94 µM in the assay with MCF-7; 2.6 µM in the assay with K562; 2.82 µM in the assay on Jurkat. Besides, in the assay on CCRF-CEM, the CC50 was 1.86 µM. The MI% in the assay on MV4-11 was 100%; in the assay with MIA PaCa-2, 96%; in the assay on HS445, 99%; in the assay on BxPC-3, 71%; with NCI-H929 it was 97%; with SW620, 82%. Further, the MI% was 98% with HEL92.1.7; 91% in the assay with THP-1; 97% with HT29; 96.8% in the assay with RL; 90.8% in the assay with RPMI-8226; 97% in the assay with Jurkat. Further, the Emax in the assay on MOLT-4 was determined as 98%; in the assay with HepG2, 78%; in the assay with HL-60, 100%; in the assay on MCF-7, 97%; with K562 it was 95%; in the assay on CCRF-CEM it was 97%.

On to `C[C@H](N[P@](=O)(OC[C@@H]1C[C@@H](O)[C@H](n2cnc3c(N)ncnc32)O1)Oc1ccccc1)C(=O)OCc1ccccc1` [Sp-7a], for which the CC50 amounted to 1.03 µM in the assay with MV4-11; 0.43 µM in the assay on MOLT-4; 18 µM with MIA PaCa-2; 67 µM with HS445; 99 µM in the assay with BxPC-3; 16 µM in the assay with NCI-H929. The CC50 was determined as 18 µM in the assay with KG-1; 35 µM in the assay with SW620; 57 µM in the assay on HepG2; 11 µM in the assay with HEL92.1.7; 66 µM in the assay with THP-1; 25 µM in the assay on HT29. The CC50 amounted to 11 µM with HL-60; 2.64 µM in the assay on RL; 19 µM with RPMI-8226; 5.87 µM in the assay on MCF-7; 3 µM in the assay on K562; 2.29 µM in the assay with Jurkat. For the same compound, in the assay with CCRF-CEM, the CC50 came out at 2.04 µM. Further, the MI% in the assay on MV4-11 is 100%; with MIA PaCa-2 it was 94%; in the assay with HS445, 75%; in the assay with BxPC-3, 73%; in the assay with NCI-H929, 94%; in the assay on SW620, 87%. For the same compound, the MI% in the assay on HEL92.1.7 stood at 100%; in the assay on THP-1, 69%; in the assay with HT29 it was 95%; with RL it was 92.6%; in the assay on RPMI-8226, 86.8%; in the assay with Jurkat, 90%. Moreover, the Emax worked out at 98% in the assay with MOLT-4; 73% in the assay with HepG2; 92% in the assay on HL-60; 94% in the assay with MCF-7; 96% in the assay on K562; 97% with CCRF-CEM.
